Laboratory results reported in patent EP2567959B1, “6-(4-HYDROXY-PHENYL)-3-STYRYL-1H-PYRAZOLO[3,4-B]PYRIDINE-4-CARBOXYLIC ACID AMIDE DERIVATIVES AS KINASE INHIBITORS” (SANOFI, priority 2011, dated 2013).

Each molecule was assayed against T1, human full-length recombinant PKC βII (Homo sapiens, UniProt P05771) (assay: Determination of PKC βII inhibition (Caliper mobility-shift kinase assay, phosphorylation of fluorescein peptide substrate)). Conditions: final compound concentration 1.14 µM (±0.15 µM); 60 min incubation at 32 °C.
T1 construct: Active human full-length recombinant PKC βII; purchased Invitrogen GmbH, Darmstadt, Germany
Assay type: biochemical
Description: Determination of PKC βII inhibition
PKC βII inhibition was determined according to the following protocol:
Active human full-length recombinant PKC βII and the peptide substrate, Fluorescein-RFARKGSLRQKNV, were purchased from Invitrogen GmbH, Darmstadt, Germany. Adenosine-5'-triphosphate (ATP), bovine serum albumine (BSA), dimethylsulphoxide (DMSO), 4-(2-hydroxyethyl)piperazine-1-ethanesulfonic acid (Hepes), Triton X-100, 1,2-Dioleoyl-sn-glycerol (DAG), L-α-Phosphatidyl-L-serine (PS), calcium chloride (CaCl2), and Pluronic F-68 were purchased from Sigma-Aldrich, Munich, Germany. Magnesium chloride, 1 M sodium hydroxide solution, 1M hydrochloric acid solution and EDTA were obtained from Merck Biosciences, Darmstadt, Germany.
Test compounds were diluted to three times the test concentration in buffer 1 (30 mM Hepes-NaOH, pH 7.4, 0.01 % Pluronic F-68 and 3 % (v/v) DMSO). The PKC βII enzyme was diluted to a concentration of 30 ng/ml in buffer 2 (30 mM Hepes-NaOH, pH 7.4, 15 mM MgCl2,150 µM CaCl2, 150 µg/ml PS, 60 µg/ml DAG, and 0.045 % (w/v) Triton X-100). The peptide substrate and ATP were diluted to concentrations of 3 µM and 120 µM, respectively, in buffer 2. Two µl of the compound solution were mixed with 2 µl of the diluted enzyme in a 384-well small volume microtiter plate (Greiner, Bio-One, Frickenhausen, Germany), and the kinase reaction was initiated by addition of 2 µl of the solution containing peptide substrate and ATP. After 60 min incubation at 32 °C, the reaction was stopped by addition of 20 µl of a solution containing 130 mM Hepes-NaOH, pH 7.4, 0.0195 % (v/v) Brij-35, 6.5 mM EDTA, 0.13 % chip coating reagent 3 (Caliper Lifescience Inc, Hopkinton, MA) and 6.5 % (v/v) DMSO. Phosphorylation of the substrate peptide was then detected on a Caliper 3000 instrument essentially as described by Pommereau et al (J. Biomol. Screening 2004, 9(5), 409-416). Separation conditions were as follows: Pressure -0.8 psi, upstream voltage - 3000 V, downstream voltage -800 V. Positive controls (buffer 1 instead of compound) and negative controls (buffer 1 instead of compound and buffer 2 instead of kinase solution) were run in parallel on each plate. Fractional turnover (R) was determined as the height of the peak of the phosphorylated peptide product divided by the sum of the unphosphorylated substrate and phosphorylated product peak heights. Percent-inhibition values for the test compounds were determined using the formula % Inhibition = 100*(1-(Rcompound-Rnegative control)/(Rpositive control-Rnegative control). [formula]
In the following table % inhibition values observed with example compounds at a final concentration of 1.14 µM (±0.15 µM) are listed: […]

T1 sequence (P05771 1-673 isoform P05771-2): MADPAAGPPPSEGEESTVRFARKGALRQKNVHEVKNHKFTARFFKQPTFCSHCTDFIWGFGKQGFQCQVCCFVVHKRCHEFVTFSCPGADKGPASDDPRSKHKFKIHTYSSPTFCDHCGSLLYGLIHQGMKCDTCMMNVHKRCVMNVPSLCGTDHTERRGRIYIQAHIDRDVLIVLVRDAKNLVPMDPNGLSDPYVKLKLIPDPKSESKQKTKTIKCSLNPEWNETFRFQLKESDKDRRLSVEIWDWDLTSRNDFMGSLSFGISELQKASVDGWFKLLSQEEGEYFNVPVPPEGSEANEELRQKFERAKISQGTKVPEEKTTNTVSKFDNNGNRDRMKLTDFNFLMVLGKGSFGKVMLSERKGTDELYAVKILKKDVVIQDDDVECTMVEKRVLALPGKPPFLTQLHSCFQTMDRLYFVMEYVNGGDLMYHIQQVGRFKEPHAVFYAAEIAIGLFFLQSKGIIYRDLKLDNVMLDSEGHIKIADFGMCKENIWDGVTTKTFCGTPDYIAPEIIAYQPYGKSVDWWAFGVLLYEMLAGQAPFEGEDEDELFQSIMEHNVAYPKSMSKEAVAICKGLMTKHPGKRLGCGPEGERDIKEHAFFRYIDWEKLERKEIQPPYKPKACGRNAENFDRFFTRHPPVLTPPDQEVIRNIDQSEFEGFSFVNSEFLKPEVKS

Compared with `O=C(c1cc(-c2ccc(O)cc2)nc2[nH]nc(/C=C/c3ccc(F)cc3)c12)N1CCNCC1` [Example 37, [3-[(E)-2-(4-Fluoro-phenyl)-vinyl]-6-(4-hydroxy-phenyl)-1H-pyrazolo[3,4-b]pyridin-4-yl]-piperazin-1-yl-methanone], `O=C(c1cc(-c2ccc(O)cc2)nc2[nH]nc(/C=C/c3ccc(Cl)cc3)c12)N1CCNCC1` [Example 1, [3-[(E)-2-(4-Chloro-phenyl)-vinyl]-6-(4-hydroxy-phenyl)-1 H-pyrazolo[3,4-b]pyridin-4-yl]-piperazin-1-yl-methanone] is lower in inhibition at 1.14 µM: 97% for the first, 86% for the second.

First: COc1cc(-c2cc(C(=O)N3CCNCC3)c3c(/C=C/c4ccccc4)n[nH]c3n2)ccc1O [Example 9, [6-(4-Hydroxy-3-methoxy-phenyl)-3-((E)-styryl)-1H-pyrazolo[3,4-b]pyridin-4-yl]-piperazin-1-yl-methanone]
Second: O=C(c1cc(-c2ccc(O)cc2)nc2[nH]nc(/C=C/c3ccccc3)c12)N1CCNCC1 [Example 2, [6-(4-Hydroxy-phenyl)-3-((E)-styryl)-1H-pyrazolo[3,4-b]pyridin-4-yl]-piperazin-1-yl-methanone]
The inhibition at 1.14 µM of the first is lower: 55% for the first, 97% for the second.

First: CN1Cc2ccc(/C=C/c3n[nH]c4nc(-c5ccc(O)cc5)cc(C(=O)N5CCNCC5)c34)cc2C1=O [Example 35, 6-{(E)-2-[6-(4-Hydroxy-phenyl)-4-(piperazine-1-carbonyl)-1H-pyrazolo[3,4-b]pyridin-3-yl]-vinyl}-2-methyl-2,3-dihydro-isoindol-1-one]
Second: CN1Cc2cc(/C=C/c3n[nH]c4nc(-c5ccc(O)cc5)cc(C(=O)N5CCNCC5)c34)ccc2C1=O [Example 32, 5-{(E)-2-[6-(4-Hydroxy-phenyl)-4-(piperazine-1-carbonyl)-1H-py-razolo[3,4-b]pyri-din-3-yl]-vinyl}-2-methyl-2,3-di-hydro-isoindol-1-one]
The inhibition at 1.14 µM of the first is lower: 98% for the first, 99% for the second.

Going from `CN(C)C(=O)c1cccc(/C=C/c2n[nH]c3nc(-c4ccc(O)cc4)cc(C(=O)N4CCNCC4(C)C)c23)c1` [Example 34, 3-{(E)-2-[4-(2,2-Dimethyl-piperazine-1-carbonyl)-6-(4-hydroxy-phenyl)-1H-pyrazolo[3,4-b]pyridin-3-yl]-vinyl}-N,N-dimethyl-benzamide] to `CC1(C)CNCCN1C(=O)c1cc(-c2ccc(O)cc2)nc2[nH]nc(/C=C/c3ccccc3)c12` [Example 3, (2,2-Dimethyl-piperazin-1-yl)-[6-(4-hydroxy-phenyl)-3-((E)-styryl)-1 H-pyrazolo[3,4-b]pyridin-4-yl]-methanone], the inhibition at 1.14 µM falls from 98% to 88%.

Compared with `O=C(c1cc(-c2ccc(O)cc2Cl)nc2[nH]nc(/C=C/c3ccccc3)c12)N1CCNCC1` [Example 13, [6-(2-Chloro-4-hydroxy-phenyl)-3-((E)-styryl)-1 H-pyrazolo[3,4-b]pyridin-4-yl]-piperazin-1-yl-methanone], `Cc1ccccc1/C=C/c1n[nH]c2nc(-c3ccc(O)cc3)cc(C(=O)N3CCNCC3)c12` [Example 69, [6-(4-Hydroxy-phenyl)-3-((E)-2-o-tolyl-vinyl)-1H-pyrazolo[3,4-b]pyridin-4-yl]-piperazin-1-yl-methanone] is lower in inhibition at 1.14 µM: 110% for the first, 94% for the second.

Compared with `O=C(c1cc(-c2ccc(O)cc2)nc2[nH]nc(/C=C/c3ccc4c(c3)OCO4)c12)N1CCNCC1` [Example 65, [3-((E)-2-Benzo[1,3]dioxol-5-yl-vinyl)-6-(4-hydroxy-phenyl)-1H-pyrazolo[3,4-b]pyridin-4-yl]-piperazin-1-yl-methanone], `CCc1ccc(/C=C/c2n[nH]c3nc(-c4ccc(O)cc4)cc(C(=O)N4CCNCC4)c23)cc1` [Example 53, [3-[(E)-2-(4-Ethyl-phenyl)-vinyl]-6-(4-hydroxy-phenyl)-1H-pyrazolo[3,4-b]pyridin-4-yl]-piperazin-1-yl-methanone] is lower in inhibition at 1.14 µM: 97% for the first, 95% for the second.

Compared with `O=C(c1cc(-c2ccc(O)cc2)nc2[nH]nc(/C=C/c3cccc(N4CCCC4=O)c3)c12)N1CCNCC1` [Example 20, 1-(3-{(E)-2-[6-(4-Hydroxy-phenyl)-4-(piperazine-1-carbonyl)-1H-pyrazolo[3,4-b]pyridin-3-yl]-vinyl}-phenyl)-pyrrolidin-2-one], `O=C(c1cc(-c2ccc(O)cc2)nc2[nH]nc(/C=C/c3cc(Cl)cc(N4CCCCC4)c3)c12)N1CCNCC1` [Example 30, [3-[(E)-2-(3-Chloro-5-pipe-ridin-1-yl-phe-nyl)-vinyl]-6-(4-hydroxy-phenyl)-1H-pyrazolo[3,4-b]pyridin-4-yl]-piperazin-1-yl-methanone] is lower in inhibition at 1.14 µM: 115% for the first, 90% for the second.

Going from `CC[C@H]1CNCCN1C(=O)c1cc(-c2ccc(O)cc2)nc2[nH]nc(/C=C/c3ccccc3)c12` [Example 10, ((S)-2-Ethyl-piperazin-1-yl)-[6-(4-hydroxy-phenyl)-3-((E)-styryl)-1H-pyrazolo[3,4-b]pyridin-4-yl]-methanone] to `O=C(c1cc(-c2ccc(O)cc2)nc2[nH]nc(/C=C/c3ccccc3)c12)N1CCC2(CCNC2)C1` (stereo not shown) [Example 78, (2,7-Diaza-spiro-[4.4]non-2-yl)-[6-(4-hydroxy-phenyl)-3-((E)-styryl)-1H-pyra-zolo[3,4-b]py-ridin-4-yl]-methanone], the inhibition at 1.14 µM rises from 87% to 94%.

Compared with `O=C(c1cc(-c2ccc(O)cc2)nc2[nH]nc(/C=C/c3ccc(OC(F)F)cc3)c12)N1CCNCC1` [Example 41, [3-[(E)-2-(4-Difluoromethoxy-phenyl)-vinyl]-6-(4-hydroxy-phenyl)-1H-pyrazolo[3,4-b]pyridin-4-yl]-piperazin-1-yl-methanone], `CCOc1ccc(/C=C/c2n[nH]c3nc(-c4ccc(O)cc4)cc(C(=O)N4CCNCC4)c23)cc1` [Example 67, [3-[(E)-2-(4-Ethoxy-phenyl)-vinyl]-6-(4-hydroxy-phenyl)-1 H-pyrazolo[3,4-b]pyridin-4-yl]-piperazin-1-yl-methanone] is higher in inhibition at 1.14 µM: 97% for the first, 99% for the second.

Compared with `CC(C)(CO)C(=O)N1CCN(C(=O)c2cc(-c3ccc(O)cc3)nc3[nH]nc(/C=C/c4ccccc4)c23)CC1` [Example 87, 3-Hydroxy-1-{4-[6-(4-hydroxy-phenyl)-3-((E)-styryl)-1H-pyra-zolo[3,4-b]pyri-dine-4-carbonyl]-piperazin-1-yl}-2,2-dimethyl-propan-1-one], `O=C(c1cc(-c2ccc(O)cc2)nc2[nH]nc(/C=C/c3ccccc3)c12)N1CCNC2(CCCC2)C1` [Example 79, (6,9-Diaza-spiro-[4.5]dec-9-yl)-[6-(4-hydroxy-phenyl)-3-((E)-styryl)-1H-pyra-zolo[3,4-b]py-ridin-4-yl]-methanone] is higher in inhibition at 1.14 µM: 94% for the first, 97% for the second.

Compared with `O=C(c1cc(-c2ccc(O)cc2)nc2[nH]nc(/C=C/c3ccc(C(F)(F)F)cc3)c12)N1CCNCC1` [Example 42, {6-(4-Hydroxy-phenyl)-3-[(E)-2-(4-trifluoromethylphenyl)-vinyl]-1 H-pyrazolo[3,4-b]pyridin-4-yl}-piperazin-1-yl-methanone], `Cc1ccc(/C=C/c2n[nH]c3nc(-c4ccc(O)cc4)cc(C(=O)N4CCNCC4)c23)c(F)c1` [Example 63, [3-[(E)-2-(2-Fluoro-4-methyl-phenyl)-vinyl]-6-(4-hydroxy-phenyl)-1H-pyrazolo[3,4-b]pyridin-4-yl]-piperazin-1-yl-methanone] is higher in inhibition at 1.14 µM: 66% for the first, 97% for the second.
